In patent US20100204090A1, “USE OF A PEPTIDE AS A THERAPEUTIC AGENT” (priority 2007, published 2010):
Bridge positions count the residues as written; N and C are the ends. Peptide text beside a SMILES is read from it.

Experiments:
HepG2-2.2.15 cells = test: Cell viability (dye uptake) in the HBV assay; format: cell-based; settings: peptide 10 micrograms per ml, % cell control
MRC-5 cells = settings: human, 6 days
[1] = test system: Primary Human endothelial cells (HUVEC); test: Endothelial cell migration assay; format: cell-based; settings: peptide 10 micrograms per ml, 22 hours
[2] = Cytotoxicity testing in MRC-5 cells (CellTiter 96); settings: human, MRC-5 cells (embryonal lung fibroblasts)
HUVEC = test: Endothelial tube formation assay; format: cell-based, human; settings: peptide 10 micrograms per ml, 20 hours
Text: Positive control was vehicle only.

[3] = human, cells plus peptide only
[4] = test system: TNF alpha production in PBMC-derived macrophages; test: TNF alpha production assay (LPS-stimulated macrophages, ELISA); format: cell-based, human; settings: peptide 10 micrograms per ml, lipopolysaccharide 200 ng/ml, overnight
Text: Not stimulated macrophages served as negative background control.

[5] = test system: Human Peripheral Blood Mononuclear Cells (PBMC), B cell proliferation; test: B cell proliferation assay (SAC plus IL-2 stimulated PBMC, 3H-thymidine); format: cell-based; settings: peptide 10 micrograms per ml, 3 days plus 12 hours 3H-thymidine
[6] = Cell viability (dye uptake) in the HBV assay; format: cell-based; settings: human, HepG2-2.2.15 cells (stable line containing HBV ayw genome), peptide 10 micrograms per ml, % cell control
A549 cells = test: Propidium iodide cell cycle assay; format: cell-based, human; settings: peptide 10 micrograms per ml, 24 hours, FACS
[7] = test system: hepatitis B virus (HBV) ayw strain; test: HBV replication assay in HepG2-2.2.15 cells (secreted HBV DNA, TaqMan PCR); format: cell-based; settings: peptide 10 micrograms per ml; six days; HBV DNA in supernatant, % virus control
[8] = test system: Human Peripheral Blood Mononuclear Cells (PBMC), T cell proliferation; test: T cell proliferation assay (PHA-stimulated PBMC, 3H-thymidine); format: cell-based; settings: peptide 10 micrograms per ml, 3 days plus 12 hours 3H-thymidine
HCMV strain AD169 = test: HCMV plaque reduction assay in MRC-5 cells; format: cell-based, human cytomegalovirus; settings: HCMV AD169 in MRC-5 cells; peptide 10 micrograms per ml; 7-10 days
Text: Ganciclovir was used as positive control.

[9] = test system: spleen cells of Ovalbumin-immunized Balb/c mice; test: Th1/Th2 cytokine profiling assay (Ovalbumin-restimulated spleen cells, CBA kit); format: cell-based, mouse; settings: peptide 10 micrograms per ml; Ovalbumin 10 micrograms/ml restimulation; 72 hours
Text: The Balb/c mice (originated in 1923, it is a popular strain and is used in many different research disciplines. Also classified as an inbred from the production of 20 or more successive brother-sister matings, the Balb/c mouse is albino and small in size) were immunized on Days 1, 15, and 29 with Ovalbumin (Ovalbumin is the main protein found in egg white, commonly used to stimulate an immunological reaction in test animals) in PBS (5 micrograms/injection). On day 50, spleens of the mice were harvested (3 weeks after last boost with Ovalbumin). […] Thereafter, additional Ovalbumin was added to the cells at 10 micrograms/ml for in vitro restimulation of the cells. 72 hours later, cell supernatants were harvested and assayed using the Becton Dickinson Mouse Th1/Th2 Cytokine CBA Kit. This kit can be used to measure Interleukin-2 (IL-2), Interleukin-4 (IL-4), Interleukin-5 (IL-5), Interferon-γ (IFN-γ), and Tumor Necrosis Factor-α (TNF-α) protein levels in a single sample.

RAW 264.7 cells = test: Phagocytosis assay (Fluorescein-labeled Escherichia coli, flow cytometry); format: cell-based, mouse; settings: peptide 10 micrograms per ml, 30 min preincubation, 60 min ingestion

Compound: Nc1ccn([C@@H]2CS[C@H](CO)O2)c(=O)n1 [Compound 3TC, Lamivudine, reference compound]
- % Cell viability (HepG2-2.2.15 cells): 95.8%

Compound: Nc1nc(O)c2ncn(COC(CO)CO)c2n1 [Ganciclovir]
- % Cell viability (MRC-5 cells): 100%

Compound: CC[C@H](C)[C@@H]1NC(=O)CNC(=O)[C@H](CCCNC(=N)N)NC(=O)CNC(=O)[C@@H]2CSSC[C@H](NC1=O)C(=O)N[C@@H](CCCNC(=N)N)C(=O)N[C@H]1CSSC[C@H](NC(=O)[C@H](CCCNC(=N)N)NC(=O)[C@@H]3CSSC[C@H](NC(=O)[C@H]([C@@H](C)CC)NC1=O)C(=O)NCC(=O)N[C@@H](CCCNC(=N)N)C(=O)NCC(=O)N[C@@H]([C@@H](C)CC)C(=O)N3)C(=O)N[C@@H]([C@@H](C)CC)C(=O)N2 [Retrocyclin-1] (cyclo(GICRCICGRGICRCICGR); disulfide 3-16, 5-14, 7-12 (inferred); ring closure inferred)
- % inhibition of migration [1]: 8%
- viability at 144 h [2]: 100%
- % inhibition of tube formation (HUVEC): 100%
- viability at 10 micrograms per ml [3]: 89.3%
- % of LPS induction [4]: 115.1%
- % of SAC/IL2 induced control [5]: 85.0%
- viability at 144 h, 10 micrograms per ml [6]: 78.5%
- Cell cycle analysis G0/G1 (A549 cells): 55.3
- Cell cycle analysis G2/M (A549 cells): 12.1
- Cell cycle analysis S (A549 cells): 32.6
- % inhibition of HBV replication in HEP G2 cells [7]: 72.2%
- % of PHA induced control [8]: 81.6%
- % plaque reduction (HCMV strain AD169): 25.8%
- IFNγ spleen cells; TH1 response (% of control) [9]: 137.6 % of control
- IL-2 spleen cells (% of control) [9]: 157.7 % of control
- IL-4 spleen cells; TH2 response (% of control) [9]: 67.1 % of control
- IL-5 spleen cells; TH2 response (% of control) [9]: 80.7 % of control
- TNF-a spleen cells; TH1 response (% of control) [9]: 152.5 % of control
- % of control phagocytosis (RAW 264.7 cells): 79.4%
